Patent US11932610B1, “4-(5-(3-fluorophenyl)-4-phenyl-4H-1,2,4-triazol-3-ylthio)butanoic acid as an antimicrobial compound” (priority 2023, dated 2024)

Assays:
[1] = test system: Bacillus cereus, Staphylococcus aureus, Pseudomonas aeruginosa, Escherichia coli, Aspergillus flavus, Chrysosporium keratinophilum; experiment: agar plate disc-diffusion antimicrobial test; type: cell-based; conditions: 6 mm discs wetted with 10 μL of 10 mg/mL in DMSO; 37° C., 48 h (72 h for fungi); DMSO control zone subtracted
Protocol: The agar plate disc-diffusion method was applied. Sterilized filter papers (6 mm in diameter) were wetted with 10 μL of a solution of 4-(5-(3-fluorophenyl)-4-phenyl-4H-1,2,4-triazol-3-ylthio)butanoic acid (III) to be tested, containing 10 mg/mL in DMSO, and the discs were allowed to air dry. The discs were then placed onto the surface of agar plates (nutrient agar for bacteria and Sabouraud's dextrose agar for fungi) seeded with the test organism. Each plate contained 15 mLof the agar medium, previously seeded with 0.2 mL of the broth culture of each organism pregrown for 18 h. The plates were incubated at 37° C. for 48 h, and 72 h for fungi. The inhibition zones was measured in mm. Discs impregnated with DMSO were used as a control, and its inhibition zone was subtracted from the tested compound actual inhibition zone. […] The antibacterial activity was screened against gram positive bacteria namely Bacillus cereus and Staphylococcus aureus and gram-negative bacterial strains namely Pseudomonas aeruginosa and Escherichia coli, while the antifungal activity was screened against Aspergillus flavus and Chrysosporium keratinophilum.

With `O=C(O)CCCSc1nnc(-c2cccc(F)c2)n1-c1ccccc1` [III, 4-(5-(3-fluorophenyl)-4-phenyl-4H-1,2,4-triazol-3-ylthio)butanoic acid] the “antimicrobial activities against different microbes” value [1] was “excellent antimicrobial activities” and the melting point was 173 °C.
